Laboratory results reported in patent publication US20230083015A1, “SMALL MOLECULE DEGRADERS OF STAT3” (THE REGENTS OF THE UNIVERSITY OF MICHIGAN, priority 2019, published 2023).
Where two headings read alike, the source gives them in different places.

How the values were obtained:
STAT1 = target: T1, STAT1 (Homo sapiens, UniProt P42224); test: Estimated DC50 for STAT1 degradation in MOLM-16 cells (immunoblotting); format: cell-based
T1 construct: In vitro cultured cells or xenograft tumors were lysed; endogenous in cells; host or cells: MOLM-16
T1 sequence (P42224 1-750): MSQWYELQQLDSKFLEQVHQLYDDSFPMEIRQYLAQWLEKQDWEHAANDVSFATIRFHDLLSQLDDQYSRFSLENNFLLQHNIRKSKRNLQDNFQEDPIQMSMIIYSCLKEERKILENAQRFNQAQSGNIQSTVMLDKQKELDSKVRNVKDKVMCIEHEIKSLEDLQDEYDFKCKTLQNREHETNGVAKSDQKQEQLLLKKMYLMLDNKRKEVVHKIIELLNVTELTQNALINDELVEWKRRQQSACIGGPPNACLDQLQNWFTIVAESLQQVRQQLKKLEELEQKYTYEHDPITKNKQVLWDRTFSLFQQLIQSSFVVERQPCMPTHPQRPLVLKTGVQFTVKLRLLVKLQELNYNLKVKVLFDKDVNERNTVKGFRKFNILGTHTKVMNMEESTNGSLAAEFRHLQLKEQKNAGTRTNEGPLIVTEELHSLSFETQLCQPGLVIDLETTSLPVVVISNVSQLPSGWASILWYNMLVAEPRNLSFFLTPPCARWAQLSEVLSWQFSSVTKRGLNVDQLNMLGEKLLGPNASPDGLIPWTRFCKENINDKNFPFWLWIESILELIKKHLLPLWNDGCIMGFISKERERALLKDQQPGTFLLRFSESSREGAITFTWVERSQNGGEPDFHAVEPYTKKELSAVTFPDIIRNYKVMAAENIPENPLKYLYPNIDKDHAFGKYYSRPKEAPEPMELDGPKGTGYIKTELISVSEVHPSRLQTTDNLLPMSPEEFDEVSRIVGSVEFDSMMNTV
Procedure: (§1) FIG. 62 is a series of four images showing the fluorescent immunoblotting analysis of STAT1 and STAT3 protein in Molm-16 cells after treatment for 4 h with Cpd. Nos. 331, 296, 361, 362, 363, 364, 365, 366, and 367 at the concentrations indicated.
(§2) In vitro cultured cells or xenograft tumors were lysed 1× Cell Lysis Buffer (Cell Signaling Technology, #9803), resolved by SDS-PAGE NuPAGE gel (Thermo Fisher Scientific), and transferred to a PVDF membrane (Bio Rad). For chemiluminescence immunoblotting, membranes were blocked for 1 h using 5% Blotting-Grade Blocker (#1706404, Bio Rad) in 1× Tris-buffered saline with Tween 20 (TBST, Pierce). Antibodies used were: rabbit mAbs for STAT3 (Cell Signaling Technology, #4368, #12640) and p-STAT3 (Y705) (Cell Signaling Technology, #9245, #52075). HRP conjugated goat anti-rabbit IgG (H+L) (#A27036) secondary antibodies was from Thermo Fisher Scientific. GAPDH (Santa Cruz Technology, sc-47724HRP) and actin (Santa Cruz Technology, sc-8432HRP, sc-47778HRP) were loading controls. For fluorescent immunoblotting, membranes were blocked using Odyssey TBS Blocker Buffer (LI-COR). IRDye 680RD and 800CW Dye-labeled secondary antibodies (LI-COR) were used. The washed membranes were scanned using Odyssey CLx imager (LI-COR). The intensity of Western blot signaling was quantitated using the Odyssey software.
(§3) The estimated DC50 in MOLM-16 cells of representative Compounds of the Disclosure against STAT3 and STAT1 is provide in Table 5.

STAT3 = STAT3 (Homo sapiens, UniProt P40763); test: Estimated DC50 for STAT3 degradation in MOLM-16 cells (immunoblotting); format: cell-based; parameters: In vitro cultured cells or xenograft tumors were lysed; endogenous in cells; host or cells: MOLM-16
Procedure: as §1, §2, §3

[1] = MOLM-16, 4 h; read-out: Estimated DC50 STAT1
[2] = MOLM-16, 4 h; read-out: Estimated DC50 STAT3

STAT3, sequence (P40763 whole entry): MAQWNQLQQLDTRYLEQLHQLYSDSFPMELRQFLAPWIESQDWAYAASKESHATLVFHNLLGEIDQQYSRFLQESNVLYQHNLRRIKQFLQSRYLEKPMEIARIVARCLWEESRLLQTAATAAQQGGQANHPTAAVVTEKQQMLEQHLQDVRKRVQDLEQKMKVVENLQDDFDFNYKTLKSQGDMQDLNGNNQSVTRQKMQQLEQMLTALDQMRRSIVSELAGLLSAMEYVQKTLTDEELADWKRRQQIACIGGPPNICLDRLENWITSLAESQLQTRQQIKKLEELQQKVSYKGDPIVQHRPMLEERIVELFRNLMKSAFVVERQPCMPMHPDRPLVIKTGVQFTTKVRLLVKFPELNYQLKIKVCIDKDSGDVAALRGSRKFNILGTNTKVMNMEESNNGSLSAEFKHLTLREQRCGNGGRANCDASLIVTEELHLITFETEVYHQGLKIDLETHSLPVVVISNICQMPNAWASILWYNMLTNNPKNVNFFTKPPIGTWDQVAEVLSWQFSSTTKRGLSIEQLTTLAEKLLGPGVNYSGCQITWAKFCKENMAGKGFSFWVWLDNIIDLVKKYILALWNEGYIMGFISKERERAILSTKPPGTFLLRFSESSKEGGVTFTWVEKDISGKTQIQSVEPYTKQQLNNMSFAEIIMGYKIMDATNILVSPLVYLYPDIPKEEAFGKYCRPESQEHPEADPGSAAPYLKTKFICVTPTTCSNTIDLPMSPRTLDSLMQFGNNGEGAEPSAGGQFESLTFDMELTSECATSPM

Compound | DC50 (STAT1; [1]) | DC50 (STAT3; [2]) | DC50 (STAT1; read-out: Estimated DC50 STAT1; MOLM-16, 4 h) | DC50 (STAT3; read-out: Estimated DC50 STAT3; MOLM-16, 4 h)
CC(=O)N1CC[C@H]2CC[C@@H](C(=O)N[C@@H](CCC(N)=O)C(=O)N[C@@H](Cc3ccc(C(C)(C)C)cc3)C(=O)N3CCC(CCC#Cc4cccc5c4CN(C4CCC(=O)NC4=O)C5=O)CC3)N2C(=O)[C@@H](NC(=O)c2cc3cc(C(F)(F)P(=O)(O)O)ccc3s2)C1 (stereo partly drawn) [Cpd. No. 363, ((2-(((5S,8S,10aR)-3-acetyl-8-(((2S)-5-amino-1-(((2S)-3-(4-(tert-butyl)phenyl)-1-(4-(4-(2-(2,6-dioxopiperidin-3-yl)-1-oxoisoindolin-4-yl)but-3-yn-1-yl)piperidin-1-yl)-1-oxopropan-2-yl)amino)-1,5-dioxopentan-2-yl)carbamoyl)-6-oxodecahydropyrrolo [1,2-a][1,5]diazocin-5-yl)carbamoyl)benzo[b]thiophen-5-yl)difluoromethyl)phosphonic acid] | < 250 nM | < 250 nM | – | –
CCN1CC[C@H]2CC[C@@H](C(=O)N[C@@H](CCC(N)=O)C(=O)N[C@@H](Cc3ccc(NS(=O)(=O)c4ccc(C5CCCCC5)cc4)cc3)C(=O)N3CCC(CCC#Cc4cccc5c4CN(C4CCC(=O)NC4=O)C5=O)CC3)N2C(=O)[C@@H](NC(=O)c2cc3cc(C(F)(F)P(=O)(O)O)ccc3s2)C1 (stereo partly drawn) [Cpd. No. 357, ((2-(((5S,8S,10aR)-8-(((2S)-5-amino-1-(((2S)-3-(4-((4-cyclohexylphenyl)sulfonamido)phenyl)-1-(4-(4-(2-(2,6-dioxopiperidin-3-yl)-1-oxoisoindolin-4-yl)but-3-yn-1-yl)piperidin-1-yl)-1-oxopropan-2-yl)amino)-1,5-dioxopentan-2-yl)carbamoyl)-3-ethyl-6-oxodecahydropyrrolo[1,2-a][1,5]diazocin-5-yl)carbamoyl)benzo[b]thiophen-5-yl)difluoromethyl) phosphonic acid] | > 1000 nM | 500 nM | – | –
CCN1CC[C@H]2CC[C@@H](C(=O)N[C@@H](CCC(N)=O)C(=O)N[C@@H](Cc3ccc(S(=O)(=O)c4ccccc4)cc3)C(=O)N3CCC(CCC#Cc4cccc5c4CN(C4CCC(=O)NC4=O)C5=O)CC3)N2C(=O)[C@@H](NC(=O)c2cc3cc(C(F)(F)P(=O)(O)O)ccc3s2)C1 (stereo partly shown) [Cpd. No. 352] | – | – | 250 nM | < 250 nM
CCN1CC[C@H]2CC[C@@H](C(=O)N[C@@H](CCC(N)=O)C(=O)N[C@@H](Cc3ccc(NS(=O)(=O)c4ccc(C)cc4)cc3)C(=O)N3CCC(CCC#Cc4cccc5c4CN(C4CCC(=O)NC4=O)C5=O)CC3)N2C(=O)[C@@H](NC(=O)c2cc3cc(C(F)(F)P(=O)(O)O)ccc3s2)C1 (stereo partly drawn) [Cpd. No. 354, ((2-(((5S,8S,10aR)-8-(((2S)-5-amino-1-(((2S)-1-(4-(4-(2-(2,6-dioxopiperidin-3-yl)-1-oxoisoindolin-4-yl)but-3-yn-1-yl)piperidin-1-yl)-3-(4-((4-methylphenyl)sulfonamido)phenyl)-1-oxopropan-2-yl)amino)-1,5-dioxopentan-2-yl)carbamoyl)-3-ethyl-6-oxodecahydropyrrolo[1,2-a][1,5]diazocin-5-yl)carbamoyl)benzo[b]thiophen-5-yl)difluoromethyl)phosphonic Acid] | 250 nM | < 250 nM | – | –
CC(C)(C)c1ccc(C[C@H](NC(=O)[C@H](CCC(N)=O)NC(=O)[C@@H]2CC[C@@H]3CCN(CC(F)F)C[C@H](NC(=O)c4cc5cc(C(F)(F)P(=O)(O)O)ccc5s4)C(=O)N32)C(=O)N2CCC(CCC#Cc3cccc4c3CN(C3CCC(=O)NC3=O)C4=O)CC2)cc1 (stereo partly drawn) [Cpd. No. 362, ((2-(((5S,8S,10aR)-8-(((2S)-5-amino-1-(((2S)-3-(4-(tert-butyl)phenyl)-1-(4-(4-(2-(2,6-dioxopiperidin-3-yl)-1-oxoisoindolin-4-yl)but-3-yn-1-yl)piperidin-1-yl)-1-oxopropan-2-yl)amino)-1,5-dioxopentan-2-yl)carbamoyl)-3-(2,2-difluoroethyl)-6-oxodecahydropyrrolo[1,2-a][1,5]diazocin-5-yl)carbamoyl)benzo[b]thiophen-5-yl)difluoromethyl) phosphonic acid] | < 250 nM | < 250 nM | – | –
CCN1CC[C@H]2CC[C@@H](C(=O)N[C@@H](CCC(N)=O)C(=O)N[C@@H](Cc3ccc(C(=O)N4CCOCC4)cc3)C(=O)N3CCC(CCC#Cc4cccc5c4CN(C4CCC(=O)NC4=O)C5=O)CC3)N2C(=O)[C@@H](NC(=O)c2cc3cc(C(F)(F)P(=O)(O)O)ccc3s2)C1 (stereo partly drawn) [Cpd. No. 366, ((2-(((5S,8S,10aR)-8-(((2S)-5-amino-1-(((2S)-1-(4-(4-(2-(2,6-dioxopiperidin-3-yl)-1-oxoisoindolin-4-yl)but-3-yn-1-yl)piperidin-1-yl)-3-(4-(morpholine-4-carbonyl)phenyl)-1-oxopropan-2-yl)amino)-1,5-dioxopentan-2-yl)carbamoyl)-3-ethyl-6-oxodecahydropyrrolo[1,2-a][1,5]diazocin-5-yl)carbamoyl)benzo[b]thiophen-5-yl)difluoromethyl) phosphonic acid] | < 250 nM | < 250 nM | – | –
CCN1CC[C@H]2CC[C@@H](C(=O)N[C@@H](CCNC(N)=O)C(=O)N[C@@H](Cc3ccc(C(C)(C)C)cc3)C(=O)N3CCC(CCC#Cc4cccc5c4CN(C4CCC(=O)NC4=O)C5=O)CC3)N2C(=O)[C@@H](NC(=O)c2cc3cc(C(F)(F)P(=O)(O)O)ccc3s2)C1 (stereo partly drawn) [compound 355, ((2-(((5S,8S,10aR)-8-(((2S)-1-(((2S)-3-(4-(tert-butyl)phenyl)-1-(4-(4-(2-(2,6-dioxopiperidin-3-yl)-1-oxoisoindolin-4-yl)but-3-yn-1-yl)piperidin-1-yl)-1-oxopropan-2-yl)amino)-1-oxo-4-ureidobutan-2-yl)carbamoyl)-3-ethyl-6-oxodecahydropyrrolo[1,2-a][1,5]diazocin-5-yl)carbamoyl)benzo[b]thiophen-5-yl)difluoromethyl)phosphonic acid] | > 1000 nM | > 1000 nM | – | –
COC(=O)N1CC[C@H]2CC[C@@H](C(=O)N[C@@H](CCC(N)=O)C(=O)N[C@@H](Cc3ccc(C(C)(C)C)cc3)C(=O)N3CCC(CCC#Cc4cccc5c4CN(C4CCC(=O)NC4=O)C5=O)CC3)N2C(=O)[C@@H](NC(=O)c2cc3cc(C(F)(F)P(=O)(O)O)ccc3s2)C1 (stereo partly drawn) [Cpd. No. 361, ((2-(((5S,8S,10aR)-8-(((2S)-5-amino-1-(((2S)-3-(4-(tert-butyl)phenyl)-1-(4-(4-(2-(2,6-dioxopiperidin-3-yl)-1-oxoisoindolin-4-yl)but-3-yn-1-yl)piperidin-1-yl)-1-oxopropan-2-yl)amino)-1,5-dioxopentan-2-yl)carbamoyl)-3-(methoxycarbonyl)-6-oxodecahydropyrrolo[1,2-a][1,5]diazocin-5-yl)carbamoyl)benzo[b]thiophen-5-yl)difluoromethyl) phosphonic acid] | 250 nM | < 250 nM | – | –
